Experimental data: PubChem BioAssay AID330 (DTP/NCI, 2004)
Toxic doses and inconclusive results are not listed. The calls were made as follows: active = survival T/C of 150% or more; inactive = T/C below 125% in these data.

Test system: P388 leukemia ip, CD2F1 mice, survival T/C
Experiment: NCI In Vivo Anticancer Drug Screen. Data for tumor model P388 Leukemia (intraperitoneal) in CD2F1 (CDF1) mice
Conditions: endpoint: median survival time, higher = longer survival
How it was run: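 Mice carrying the transplanted tumor received test compound or vehicle. Survival was recorded in each group, and the value is the treated-group measurement divided by that of the vehicle-treated control group.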

[1] = dose: 50.0 mg/kg/injection, schedule: Q01DX009 (ip), vehicle: saline with Tween-80
[2] = dose: 100.0 mg/kg/injection, schedule: Q01DX009 (ip), vehicle: saline with Tween-80
[3] = dose: 200.0 mg/kg/injection, schedule: Q01DX009 (ip), vehicle: saline with Tween-80
[4] = dose: 50.0 mg/kg/injection, schedule: Q04DX003 (ip), vehicle: saline with Tween-80
[5] = dose: 100.0 mg/kg/injection, schedule: Q04DX003 (ip), vehicle: saline with Tween-80
[6] = dose: 50.0 mg/kg/injection, schedule: Q01DX009 (ip), vehicle: Klucel (hydroxypropylcellulose) (HPC)
[7] = dose: 100.0 mg/kg/injection, schedule: Q01DX009 (ip), vehicle: Klucel (hydroxypropylcellulose) (HPC)
[8] = dose: 200.0 mg/kg/injection, schedule: Q01DX009 (ip), vehicle: Klucel (hydroxypropylcellulose) (HPC)
[9] = dose: 3.13 mg/kg/injection, schedule: Q04DX003 (ip), vehicle: water
[10] = dose: 12.5 mg/kg/injection, schedule: Q04DX003 (ip), vehicle: water

Measured: T/C

CC1=C2C(=CO[C@H](C)[C@H]2C)C(=O)C(C(=O)O)=C1O
inactive: dose: 6.25 mg/kg/injection, schedule: Q01DX009 (ip), vehicle: Klucel (hydroxypropylcellulose) (HPC) 112 % of control | dose: 6.25 mg/kg/injection, schedule: Q01DX009 (ip), vehicle: saline 117 % of control | dose: 12.5 mg/kg/injection, schedule: Q01DX009 (ip), vehicle: Klucel (hydroxypropylcellulose) (HPC) 120 % of control | dose: 12.5 mg/kg/injection, schedule: Q01DX009 (ip), vehicle: saline 115 % of control | dose: 25.0 mg/kg/injection, schedule: Q01DX009 (ip), vehicle: Klucel (hydroxypropylcellulose) (HPC) 124 % of control

Cn1cnc2c1c(=O)n(C(C(N)=O)C(N)=O)c(=O)n2C
inactive: dose: 200.0 mg/kg/injection, schedule: Q01DX001 (ip), vehicle: saline with Tween-80 104 % of control | dose: 400.0 mg/kg/injection, schedule: Q01DX001 (ip), vehicle: saline with Tween-80 101 % of control

C1=C(c2ccccc2)CS1
inactive: dose: 100.0 mg/kg/injection, schedule: Q01DX001 (ip), vehicle: saline with Tween-80 102 % of control

ClCCCCN(CCN(CCCCCl)c1ccccc1)c1ccccc1
inactive: dose: 12.5 mg/kg/injection, schedule: Q04DX002 (ip), vehicle: saline 100 % of control | dose: 25.0 mg/kg/injection, schedule: Q04DX002 (ip), vehicle: saline 101 % of control

CCOCC1COc2c(cc3[nH]cc(C(=O)O)c(=O)c3c2Cl)O1 (configuration not stated)
inactive: [1] 95 % of control | [2] 93 % of control | [3] 95 % of control

COC(CCC1CO1)OC (configuration not stated)
inactive: [1] 100 % of control | [2] 96 % of control | [3] 99 % of control

Clc1ccc2nc(CI)c(CI)nc2c1
inactive: dose: 5.5 mg/kg/injection, schedule: Q01DX009 (ip), vehicle: saline with Tween-80 104 % of control | dose: 8.3 mg/kg/injection, schedule: Q01DX009 (ip), vehicle: saline with Tween-80 95 % of control | dose: 12.5 mg/kg/injection, schedule: Q01DX009 (ip), vehicle: saline with Tween-80 100 % of control | dose: 18.7 mg/kg/injection, schedule: Q01DX009 (ip), vehicle: saline with Tween-80 118 % of control | dose: 25.0 mg/kg/injection, schedule: Q04DX003 (ip), vehicle: saline with Tween-80 118 % of control | [4] 118 % of control | [5] 122 % of control

O=c1cc(Br)[nH]c(=O)o1
inactive: dose: 25.0 mg/kg/injection, schedule: Q01DX009 (ip), vehicle: saline with Tween-80 91 % of control | [1] 97 % of control | [2] 92 % of control

O=c1[nH]cc(Br)c2ccccc12
inactive: dose: 25.0 mg/kg/injection, schedule: Q04DX002 (ip), vehicle: saline with Tween-80 92 % of control | dose: 50.0 mg/kg/injection, schedule: Q04DX002 (ip), vehicle: saline with Tween-80 93 % of control | dose: 100.0 mg/kg/injection, schedule: Q04DX002 (ip), vehicle: saline with Tween-80 96 % of control

CCOC(=O)N1C=CC2(C=C1)CCCCC2
inactive: dose: 25.0 mg/kg/injection, schedule: Q04DX003 (ip), vehicle: Klucel (hydroxypropylcellulose) (HPC) 101 % of control | dose: 50.0 mg/kg/injection, schedule: Q04DX003 (ip), vehicle: Klucel (hydroxypropylcellulose) (HPC) 106 % of control

Cn1c(=O)c2c(nc(CCCCc3nc4c(c(=O)n(C)c(=O)n4C)n3C)n2C)n(C)c1=O
inactive: dose: 1.56 mg/kg/injection, schedule: Q01DX009 (ip), vehicle: saline with Tween-80 87 % of control | dose: 3.13 mg/kg/injection, schedule: Q01DX009 (ip), vehicle: saline with Tween-80 89 % of control | dose: 6.25 mg/kg/injection, schedule: Q01DX009 (ip), vehicle: saline with Tween-80 88 % of control | [1] 86 % of control

COC(=O)c1nc(=S)[nH]c(C(=O)OC)c1C(=O)c1cccc2ccccc12
inactive: dose: 60.0 mg/kg/injection, schedule: Q01DX005 (ip), vehicle: Klucel + Tween-80 102 % of control | dose: 120.0 mg/kg/injection, schedule: Q01DX005 (ip), vehicle: Klucel + Tween-80 95 % of control | dose: 240.0 mg/kg/injection, schedule: Q01DX005 (ip), vehicle: Klucel + Tween-80 92 % of control

COc1cc(C)c(C(CC(=O)O)CC(=O)N(CCCl)CCCl)cc1C(C)C (configuration not stated)
inactive: dose: 100.0 mg/kg/injection, schedule: Q01DX003 (ip), vehicle: saline 102 % of control | dose: 200.0 mg/kg/injection, schedule: Q01DX003 (ip), vehicle: saline 100 % of control | dose: 400.0 mg/kg/injection, schedule: Q01DX003 (ip), vehicle: saline 100 % of control

C#CCOC(=O)C12CCC(C)(C)CC1C1=CCC3C4(C)CCC(O)C(C)(CO)C4CCC3(C)C1(C)CC2 (configuration not stated)
inactive: dose: 12.5 mg/kg/injection, schedule: Q01DX005 (ip), vehicle: saline with Tween-80 101 % of control | dose: 25.0 mg/kg/injection, schedule: Q01DX005 (ip), vehicle: saline with Tween-80 94 % of control

O=[N+]([O-])c1ccc(N/N=C(\C(=N/Nc2ccc([N+](=O)[O-])cc2[N+](=O)[O-])c2ccccc2)c2ccccc2)c([N+](=O)[O-])c1
inactive: [4] 103 % of control | [5] 91 % of control | dose: 200.0 mg/kg/injection, schedule: Q04DX003 (ip), vehicle: saline with Tween-80 91 % of control

Nc1ccc2ccccc2c1[N+](=O)[O-]
inactive: [6] 105 % of control | [7] 102 % of control | [8] 113 % of control

COc1cccc2c1C(=O)c1c(O)c3c(c(O)c1C2=O)CC(O)(C(C)=O)CC3OC1OC(C)C(O)C(N)C1O (configuration not stated)
inactive: [9] 91 % of control | dose: 6.25 mg/kg/injection, schedule: Q04DX003 (ip), vehicle: water 110 % of control | [10] 99 % of control | dose: 25.0 mg/kg/injection, schedule: Q04DX003 (ip), vehicle: water 100 % of control | dose: 50.0 mg/kg/injection, schedule: Q04DX003 (ip), vehicle: water 103 % of control

O=c1c2ccccc2n(-c2ccccc2)c2ccc(Cl)cc12
inactive: dose: 50.0 mg/kg/injection, schedule: Q01DX005 (ip), vehicle: saline with Tween-80 86 % of control | dose: 100.0 mg/kg/injection, schedule: Q01DX005 (ip), vehicle: saline with Tween-80 90 % of control

C1=C[N-]c2c3c(ccc2=C1)=CC=C[N-]3.N#[O+].O.O=N[O-].O=N[O-].[Ru+2]
inactive: [9] 107 % of control | [10] 121 % of control

COc1ccc(C(=O)CCc2c[nH]c3ccccc23)c(O)c1
inactive: dose: 60.0 mg/kg/injection, schedule: Q01DX005 (ip), vehicle: saline with Tween-80 101 % of control | dose: 120.0 mg/kg/injection, schedule: Q01DX005 (ip), vehicle: saline with Tween-80 112 % of control | dose: 240.0 mg/kg/injection, schedule: Q01DX005 (ip), vehicle: saline with Tween-80 92 % of control

C=C1C(=O)OC2C1CCC(C)=C1CCC(C)(O)C12 (configuration not stated)
inactive: dose: 5.0 mg/kg/injection, schedule: Q01DX009 (ip), vehicle: saline with Tween-80 97 % of control | dose: 10.0 mg/kg/injection, schedule: Q01DX009 (ip), vehicle: saline with Tween-80 105 % of control | dose: 20.0 mg/kg/injection, schedule: Q01DX009 (ip), vehicle: saline with Tween-80 107 % of control | dose: 40.0 mg/kg/injection, schedule: Q01DX009 (ip), vehicle: saline with Tween-80 107 % of control

CCCCCCC(O)C/C=C\CCCCCCCC(=O)O (configuration not stated)
inactive: [6] 107 % of control | [7] 107 % of control | [8] 102 % of control | dose: 400.0 mg/kg/injection, schedule: Q01DX009 (ip), vehicle: Klucel (hydroxypropylcellulose) (HPC) 95 % of control

Nc1ccc(C2=Cc3ccc(N)cc3S2(=O)=O)cc1
inactive: dose: 100.0 mg/kg/injection, schedule: Q04DX002 (ip), vehicle: saline 99 % of control | dose: 200.0 mg/kg/injection, schedule: Q04DX002 (ip), vehicle: saline 99 % of control | dose: 400.0 mg/kg/injection, schedule: Q04DX002 (ip), vehicle: saline 101 % of control
